This assay addresses human OX2R (Homo sapiens (Human), UniProt O43614). The experiment in a line: IPOne (IP-1) assay in CHO cells expressing human OX2R. The assay is classed as cell-based. As to conditions: for IC50: CHO cells expressing human OX2R, IP-One detection, 2 hours incubation, EC50 = inflection point of four parameter logistic fit, read-out: hOX2R_IP_IC50; for Emax: CHO, read-out: Emax (%). The text has this: The utility of the compounds in accordance with the present invention as orexin receptor OX1R and/or OX2R agonists may be readily determined without undue experimentation by methodology well known in the art. Both the OX1R and/or OX2R G-coupled protein receptors (GPCRs) couple through the Gαq signaling pathway, which ultimately promotes calcium mobilization via inositol triphosphate (IP3) production. The half-life of IP-3 is relatively short, being rapidly metabolized to inositol monophosphate (IP-1), which can be readily detected using a commercially available assay kit (IP-One; Cisbio; cat #621PAPEC) coupled with a cell line expressing the target receptor(s) of interest. The utility of the compounds in accordance with the present invention as orexin receptor OX1R and/or OX2R agonists may be determined utilizing this assay.
In a typical experiment, the OX1 and OX2 receptor agonist activity is determined in accordance with the following general experimental method. Chinese hamster ovary (CHO) cells expressing human OX1R and/or the human OX2R were grown in Iscove's modified DMEM containing glutaMAX™, 1% G418, 100 U/mL penicillin, 100 μg/mL streptomycin and 10% heat-inactivated qualified fetal bovine serum (FBS). The OX2R cells were seeded at 10,000 cells/well/50 μL and the OX1R cells were seeded at 20,000 cells/well/50 μL into 384-well white tissue culture plates (Greiner; cat #781080). All cell/media reagents were from GIBCO-Invitrogen Corp. The seeded cell plate(s) were incubated at 37° C. with 5% CO2 and 85% humidity for 20-24 hours. On the day of the assay, assay-ready compound plates were prepared using an acoustic liquid handler (ECHO; Labcyte), which dispensed sufficient volume of test compound stock (10 mM in DMSO) or 100% DMSO to prepare 10 point, ½-log dilutions in a final volume of 202.5 nL/well in all test wells of a 384-well diamond plate (Labcyte). Following completion of assay-ready plates, importantly, the next three steps were performed with minimal delay: 1) 20 μl of 1× stimulation buffer was added to the compound plate using a Multidrop Combi (small cassette, Thermo Fisher Scientific cat #24073290); 2) culture medium was removed from the cell plate using the Bluewasher plate washer (gentle spin; BlueCatBio); 3) 14 μl of compound/stimulation buffer mixture was added to the cell plate using a Bravo liquid handler (Agilent) prior to incubating cell plates at 37° C. with 5% CO2 and 85% humidity for 1 or 2 hours (OX1R and OX2R, respectively). During this incubation, IP-one detection reagents were prepared (38:1:1 lysis buffer:D2:AB-cryptate reagents). Six μL of mixed detection reagents were added to the cell plate using a Multidrop Combi (small cassette, Thermo Fisher Scientific cat #24073290) and incubated 60 minutes at room temperature in the dark. Fluorescence signal was detected using an Envision plate reader (Perkin Elmer) [LANCE/DELFIA Dual Enh (Em: APC 665; Ex: Cy5 620)].
For each compound, data were fit to a four parameter logistic fit (ActivityBase software) and the EC50 was reported as the inflection point of the resulting curve. Percent effect for each test compound was determined as the percentage of sample raw value/mean max effect, where the mean max effect was derived from the mean raw value of 32 control wells per assay plate (using Orexin A (cat #003-30) at 1 μM for human OX1R and a reference compound at 1 uM with 100% activity previously established by comparison to Orexin A for human OX2R). The intrinsic orexin receptor agonist activity of a compound which may be used in the present invention may be determined by these assays.

[1] abbreviates: percentage of mean max effect of a reference compound at 1 uM (100% activity by comparison to Orexin A), human OX2R.

Sequence of human OX2R (O43614 whole entry): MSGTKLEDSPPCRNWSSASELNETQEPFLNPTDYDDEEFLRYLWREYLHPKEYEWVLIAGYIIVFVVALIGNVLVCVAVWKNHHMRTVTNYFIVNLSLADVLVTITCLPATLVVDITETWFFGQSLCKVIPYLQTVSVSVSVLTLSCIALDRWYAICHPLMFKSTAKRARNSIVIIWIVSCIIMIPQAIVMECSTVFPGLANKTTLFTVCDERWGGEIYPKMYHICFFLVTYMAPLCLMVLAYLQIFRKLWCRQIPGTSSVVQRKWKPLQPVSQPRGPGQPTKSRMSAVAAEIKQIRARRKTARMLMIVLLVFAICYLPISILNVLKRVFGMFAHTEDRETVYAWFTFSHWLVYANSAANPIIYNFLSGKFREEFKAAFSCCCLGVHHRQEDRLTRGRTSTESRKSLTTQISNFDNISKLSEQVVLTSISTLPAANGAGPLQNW

Regarding `COC(=O)N1[C@H](C(F)F)C[C@H](NS(C)(=O)=O)[C@@H]1CO[C@H]1CC[C@@]2(c3ncc(F)cn3)C[C@H]2C1` (single isomer, unassigned) [Example 127], the IC50 amounted to 1.7 nM. The Emax under setting [1] was 101%. Take `CC(C)OC(=O)N1CCC[C@H](NS(=O)(=O)C(F)F)[C@@H]1CO[C@H]1CC[C@@]2(c3ncc(F)cn3)C[C@H]2C1` [Example 121, isopropyl (2R,3S)-3-((difluoromethyl)sulfonamido)-2-((((1S,3S,6R)-6-(5-fluoropyrimidin-2-yl)bicyclo[4.1.0]heptan-3-yl)oxy)methyl)piperidine-1-carboxylate]: the Emax under setting [1] was found to be 108%. Turning to `COC(=O)N1[C@H](C)C[C@H](NS(C)(=O)=O)[C@@H]1CO[C@H]1CC[C@@]2(c3ncc(C#N)cn3)C[C@H]2C1` [Example 190, methyl (2R,3S,5R)-2-((((1S,3S,6R)-6-(5-cyanopyrimidin-2-yl)bicyclo[4.1.0]heptan-3-yl)oxy)methyl)-5-methyl-3-(methylsulfonamido)pyrrolidine-1-carboxylate], the IC50 stood at 49.5 nM. The Emax under setting [1] was 103%. The matching figures for `COC(=O)N1[C@H](C)C[C@H](NS(=O)(=O)CF)[C@@H]1CO[C@H]1CC[C@@]2(c3ncc(F)c(OC)n3)C[C@H]2C1` [Example 83, methyl (2R,3S,5R)-2-((((1S,3S,6R)-6-(5-fluoro-4-methoxypyrimidin-2-yl)bicyclo[4.1.0]heptan-3-yl)oxy)methyl)-3-((fluoromethyl)sulfonamido)-5-methylpyrrolidine-1-carboxylate]: 7.6 nM and 100%.

Regarding `COC(=O)N1[C@H](C)C[C@H](NS(C)(=O)=O)[C@@H]1CO[C@@H]1CC[C@]2(c3ncccn3)C[C@@H]2C1` (single isomer, unassigned) [Example 180], the IC50 came to 100 nM. The maximal effect (Emax) under setting [1] is 99.7%.

As to `COC(=O)N1[C@H](C)C[C@H](NS(C)(=O)=O)[C@@H]1COC1CCC2(c3nccs3)CC2C1` (stereo partly drawn) [Example 149, methyl (2R,3S,5R)-5-methyl-3-(methylsulfonamido)-2-(((6-(thiazol-2-yl)bicyclo[4.1.0]heptan-3-yl)oxy)methyl)pyrrolidine-1-carboxylate], the Emax under setting [1] worked out at 96.8%. Same read-out and setting: with `COC(=O)N1[C@H](C)C[C@H](NS(C)(=O)=O)[C@@H]1COC1CCC2(c3ncc(C)cn3)CC2C1` (stereo partly drawn) [Example 159, methyl (2R,3S,5R)-5-methyl-2-(((6-(5-methylpyrimidin-2-yl)bicyclo[4.1.0]heptan-3-yl)oxy)methyl)-3-(methylsulfonamido)pyrrolidine-1-carboxylate] the figure was 98.1%; with `COC(=O)N1[C@H](C)C[C@H](NS(C)(=O)=O)[C@@H]1COC1CCC2(c3ncc(F)c(OC)n3)CC2C1` (stereo partly drawn) [Example 76, methyl (2R,3S,5R)-2-(((6-(5-fluoro-4-methoxypyrimidin-2-yl)bicyclo[4.1.0]heptan-3-yl)oxy)methyl)-5-methyl-3-(methylsulfonamido)pyrrolidine-1-carboxylate], 101%. Same read-out and setting: the figure for `C[C@@H]1C[C@H](NS(C)(=O)=O)[C@H](CO[C@H]2CC[C@@]3(c4ncc(F)cn4)C[C@H]3C2)N1C(=O)OCC(F)(F)F` [Example 65, 2,2,2-trifluoroethyl (2R,3S,5R)-2-((((1S,3S,6R)-6-(5-fluoropyrimidin-2-yl)bicyclo[4.1.0]heptan-3-yl)oxy)methyl)-5-methyl-3-(methylsulfonamido)pyrrolidine-1-carboxylate] is 102%. The same measure, in the same setting: the figure for `COC(=O)N1[C@H](C)C[C@H](NS(C)(=O)=O)[C@@H]1COC1CCC2(c3ncc(Cl)c(C(F)(F)F)n3)CC2C1` (stereo partly drawn) [Example 72, methyl (2R,3S,5R)-2-(((6-(5-chloro-4-(trifluoromethyl)pyrimidin-2-yl)bicyclo[4.1.0]heptan-3-yl)oxy)methyl)-5-methyl-3-(methylsulfonamido)pyrrolidine-1-carboxylate] is 91.7%; for `CC(C)OC(=O)N1CCC[C@H](NS(=O)(=O)C(F)(F)F)[C@@H]1COC1CC[C@@]2(c3ncc(F)cn3)CC2C1` (stereo partly drawn) [Example 123, isopropyl (2R,3S)-2-(((6-(5-fluoropyrimidin-2-yl)bicyclo[4.1.0]heptan-3-yl)oxy)methyl)-3-((trifluoromethyl)sulfonamido)piperidine-1-carboxylate] it is 102%. Take `COC(=O)N1[C@H](C)C[C@H](NS(=O)(=O)CC(F)(F)F)[C@@H]1CO[C@H]1CC[C@@]2(c3ncc(F)cn3)C[C@H]2C1` [Example 32, methyl (2R,3S,5R)-2-((((1S,3S,6R)-6-(5-fluoropyrimidin-2-yl)bicyclo[4.1.0]heptan-3-yl)oxy)methyl)-5-methyl-3-((2,2,2-trifluoroethyl)sulfonamido)pyrrolidine-1-carboxylate]: under setting [1], the Emax came to 103%.

Turning to `CC(C)OC(=O)N1[C@H](C)C[C@H](NS(C)(=O)=O)[C@@H]1CO[C@@H]1CC[C@]2(c3ncc(F)cn3)C[C@@H]2C1` [Example 29, isopropyl (2R,3S,5R)-2-((((1R,3R,6S)-6-(5-fluoropyrimidin-2-yl)bicyclo[4.1.0]heptan-3-yl)oxy)methyl)-5-methyl-3-(methylsulfonamido)pyrrolidine-1-carboxylate], the maximum response (Emax) under setting [1] came to 102%. In the case of `CC(C)OC(=O)N1[C@H](C)C[C@H](NS(=O)(=O)CF)[C@@H]1CO[C@@H]1CC[C@]2(c3ncc(F)cn3)C[C@@H]2C1` (single isomer, unassigned) [Example 99], the IC50 is 2.5 nM. The Emax under setting [1] turned out to be 103%.

For the compound `CCS(=O)(=O)N[C@H]1C[C@@H](C)N(C(=O)OC)[C@H]1CO[C@H]1CC[C@@]2(c3ncc(F)cn3)C[C@H]2C1` [Example 36, methyl (2R,3S,5R)-3-(ethylsulfonamido)-2-((((1S,3S,6R)-6-(5-fluoropyrimidin-2-yl)bicyclo[4.1.0]heptan-3-yl)oxy)methyl)-5-methylpyrrolidine-1-carboxylate], under setting [1], the Emax was 102%. As for `COC(=O)N1[C@H](C)C[C@H](NS(=O)(=O)C2CC2)[C@@H]1CO[C@H]1CC[C@@]2(c3ncc(F)cn3)C[C@H]2C1` [Example 42, methyl (2R,3S,5R)-3-(cyclopropanesulfonamido)-2-((((1S,3S,6R)-6-(5-fluoropyrimidin-2-yl)bicyclo[4.1.0]heptan-3-yl)oxy)methyl)-5-methylpyrrolidine-1-carboxylate], under setting [1], the Emax came to 103%. In the case of `CC(C)OC(=O)N1[C@H](C)C[C@H](NS(=O)(=O)N(C)C)[C@@H]1CO[C@H]1CC[C@@]2(c3ncc(F)cn3)C[C@H]2C1` (single isomer, unassigned) [Example 161], the IC50 is 0.8 nM. Also, the Emax under setting [1] amounted to 102%. Regarding `CC(C)OC(=O)N1[C@H](C)C[C@H](NS(=O)(=O)C(F)F)[C@@H]1COC1CCC2(c3ncc(F)cn3)CC2C1` (single isomer, unassigned) [Example 93], the IC50 stood at 458 nM. Besides, under setting [1], the “Emax (%)” value was determined as 40.6%. In the case of `COC(=O)N1[C@H](C(F)F)C[C@H](NS(=O)(=O)CF)[C@@H]1CO[C@H]1CC[C@@]2(c3ncc(Cl)cn3)C[C@H]2C1` (single isomer, unassigned) [Example 115], the IC50 was 1.1 nM. Moreover, under setting [1], the Emax worked out at 103%. Take `COC(=O)N1[C@H](C(F)F)C[C@H](NS(=O)(=O)C(C)C)[C@@H]1COC1CCC2(c3ncc(F)cn3)CC2C1` (stereo partly drawn) [Example 120, methyl (2R,3S,5S)-5-(difluoromethyl)-2-(((6-(5-fluoropyrimidin-2-yl)bicyclo[4.1.0]heptan-3-yl)oxy)methyl)-3-((1-methylethyl)sulfonamido)pyrrolidine-1-carboxylate]: the Emax under setting [1] came out at 102%.

As a reminder, the Emax is the maximal effect, on the per cent scale that the assay sets.

Values taken from US11680060B2, “Bicycloheptane pyrrolidine orexin receptor agonists” (Merck Sharp & Dohme LLC, priority 2020, dated 2023).
